{"source": "paper PMC10087074", "about": "(Clinical and Translational Science, 2023)", "key": {"[1]": {"system": "plasma protein", "conditions": "cited from earlier work"}, "[2]": {"system": "acetic acid‐induced writhings in male CD‐1 mice", "assay": "Acetic acid‐induced writhing test in mice with PK/PD model", "conditions": "for interindividual variability in the k 2, percent coefficient of variation: single‐agent model"}, "[3]": {"system": "plasma protein", "conditions": "cited from earlier work", "remark": "listed apart in the source"}, "[4]": {"assay": "Population PK of trazodone and gabapentin as single agents in mice", "assay_type": "in vivo", "conditions": "for D 1 (duration of the zero‐order absorption) / k 12 (intercompartment rate constant) / k 21 (intercompartment rate constant): male mice, fasting, population PK estimate; for Inter‐individual variability ω2 of V / Inter‐individual variability ω2 of k / Inter‐individual variability ω2 of k12: mice, population PK variance estimate; for Vd/F / k el: male, mouse, plasma"}, "[5]": {"system": "patients with diabetes with peripheral neuropathy / painful distal symmetrical polyneuropathy", "conditions": "cited from earlier work"}, "[6]": {"system": "thermal hyperalgesia in CCI rat model", "conditions": "cited from earlier work"}, "[7]": {"conditions": "combination model, interaction (synergism), trazodone‐gabapentin 0.075–1.5, 0.15–1.5 mg/kg"}, "[8]": {"conditions": "combination model, pure additivity, trazodone‐gabapentin 0.075–1.5, 0.15–1.5 mg/kg"}, "[9]": {"conditions": "combination model, pure additivity, trazodone‐gabapentin 0.5–5, 1.5–15 mg/kg"}, "[10]": {"conditions": "single model, gabapentin i.p. 1.5, 5 and 15 mg/kg"}, "[11]": {"conditions": "gabapentin 10, 30 and 100 mg/kg"}, "[12]": {"conditions": "31 patients, oral trazodone 50 or 100 mg/day for 2 weeks"}}, "note": "Where two headings read alike, the source gives them in different places."}
{"smiles": "NCC1(CC(=O)O)CCCCC1", "note": "[Gabapentin]", "values": [{"measurement": "plasma protein binding", "setting": "[1]; mice", "value": "not protein‐bound"}, {"measurement": "Interindividual variance ω2 of k2", "setting": "[2]; [7]", "value": 1.78}, {"measurement": "k 2 (potency parameter)", "setting": "[2]; [7]", "value": 817, "unit": "M⁻¹ s⁻¹"}, {"measurement": "Interindividual variability ω2 of k2", "setting": "[2]; [8]", "value": 1.67}, {"measurement": "k 2 (potency parameter)", "setting": "[2]; [8]", "value": 1350, "unit": "M⁻¹ s⁻¹"}, {"measurement": "Interindividual variability ω2 of k2", "setting": "[2]; [9]", "value": 1.71}, {"measurement": "k 2 (potency parameter)", "setting": "[2]; [9]", "value": 667, "unit": "M⁻¹ s⁻¹"}, {"measurement": "antinociceptive effect (number of writhes vs vehicle)", "setting": "[2]; gabapentin alone 1.5 mg/kg i.p.", "value": "ineffective"}, {"measurement": "antinociceptive effect (number of writhes vs vehicle)", "setting": "[2]; gabapentin alone 5 or 15 mg/kg i.p., p < 0.001", "value": "significant reduction of the writhes number"}, {"measurement": "Interindividual variability ω2 of k2", "setting": "[2]; [10]", "value": 1.97}, {"measurement": "k 2 (potency parameter)", "setting": "[2]; [10]", "value": 765, "unit": "M⁻¹ s⁻¹"}, {"measurement": "interindividual variability in the k 2, percent coefficient of variation", "setting": "[2]", "value": 140}, {"measurement": "plasma protein binding", "setting": "[3]; humans", "value": "not protein‐bound"}, {"measurement": "D 1 (duration of the zero‐order absorption)", "setting": "[4]; [11]", "value": 0.167, "unit": "h"}, {"measurement": "k 12 (intercompartment rate constant)", "setting": "[4]; [11]", "value": 0.935, "unit": "h⁻¹"}, {"measurement": "k 21 (intercompartment rate constant)", "setting": "[4]; [11]", "value": 0.110, "unit": "h⁻¹"}, {"measurement": "Inter‐individual variability ω2 of V", "setting": "[4]; [11]", "value": 0.00287}, {"measurement": "Inter‐individual variability ω2 of k", "setting": "[4]; [11]", "value": 0.337}, {"measurement": "Inter‐individual variability ω2 of k12", "setting": "[4]; [11]", "value": 1.43}, {"measurement": "Vd/F", "setting": "[4]; 100 mg/kg", "value": 0.846, "unit": "L/kg"}, {"measurement": "k el", "setting": "[4]; 100 mg/kg", "value": "3.11e-05", "unit": "s⁻¹"}]}
{"smiles": "O=c1n(CCCN2CCN(c3cccc(Cl)c3)CC2)nc2ccccn12", "note": "[Trazodone]", "values": [{"measurement": "patients who experienced complete relief", "setting": "[5]; [12]", "value": 22.6, "unit": "%"}, {"measurement": "patients who experienced symptomatic relief", "setting": "[5]; [12]", "value": 61.3, "unit": "%"}, {"measurement": "effect on pain and numbness", "setting": "[5]; six patients with diabetes affected by peripheral neuropathy, 100 mg/day", "value": "good effect in pain relief and numbness"}, {"measurement": "effect on thermal hyperalgesia", "setting": "[6]", "value": "dose‐dependent analgesic effect"}, {"measurement": "plasma protein binding", "setting": "[1]; mouse, ref internal unpublished data", "value": 89, "unit": "%"}, {"measurement": "Interindividual variance ω2 of k2", "setting": "[2]; [7]", "value": 1.42}, {"measurement": "k 2 (potency parameter)", "setting": "[2]; [7]", "value": 182000, "unit": "M⁻¹ s⁻¹"}, {"measurement": "Interindividual variability ω2 of k2", "setting": "[2]; [8]", "value": 1.43}, {"measurement": "k 2 (potency parameter)", "setting": "[2]; [8]", "value": 212000, "unit": "M⁻¹ s⁻¹"}, {"measurement": "Interindividual variability ω2 of k2", "setting": "[2]; [9]", "value": 1.40}, {"measurement": "k 2 (potency parameter)", "setting": "[2]; [9]", "value": 170000, "unit": "M⁻¹ s⁻¹"}, {"measurement": "k 2 (potency parameter)", "setting": "[2]; single model, trazodone o.s. 0.075, 0.15, 0.5, 1.5, 2.5 and 4.5 mg/kg", "value": 182000, "unit": "M⁻¹ s⁻¹"}, {"measurement": "Interindividual variability ω2 of k2", "setting": "[2]; single model, trazodone o.s. 0.075-4.5 mg/kg", "value": 1.42}, {"measurement": "interindividual variability in the k 2, percent coefficient of variation", "setting": "[2]", "value": 119}, {"measurement": "antinociceptive effect (number of writhes vs vehicle)", "setting": "[2]; trazodone alone 0.075 or 0.15 mg/kg o.s.", "value": "ineffective"}, {"measurement": "antinociceptive effect (number of writhes vs vehicle)", "setting": "[2]; trazodone alone 0.5 or 1.5 mg/kg o.s., p < 0.001", "value": "significant reduction of the writhes number"}, {"measurement": "plasma protein binding", "setting": "[3]; human, ref internal unpublished data", "value": 97, "unit": "%"}, {"measurement": "Vd/F", "setting": "[4]; 10 mg/kg", "value": 5.95, "unit": "L/kg"}, {"measurement": "k el", "setting": "[4]; 10 mg/kg", "value": 0.000347, "unit": "s⁻¹"}, {"measurement": "D 1 (duration of the zero‐order absorption)", "setting": "[4]; trazodone 1, 3 and 10 mg/kg", "value": 0.0833, "unit": "h"}, {"measurement": "k 12 (intercompartment rate constant)", "setting": "[4]; trazodone 1, 3 and 10 mg/kg", "value": 0.982, "unit": "h⁻¹"}, {"measurement": "k 21 (intercompartment rate constant)", "setting": "[4]; trazodone 1, 3 and 10 mg/kg", "value": 1.51, "unit": "h⁻¹"}, {"measurement": "Inter‐individual variability ω2 of V", "setting": "[4]; trazodone 1, 3 and 10 mg/kg", "value": 0.0526}, {"measurement": "Inter‐individual variability ω2 of k", "setting": "[4]; trazodone 1, 3 and 10 mg/kg", "value": 0.00899}, {"measurement": "Inter‐individual variability ω2 of k12", "setting": "[4]; trazodone 1, 3 and 10 mg/kg", "value": 0.577}]}
